According to the NIST ThermoML archive (doi:10.1021/je060485s):

What was measured:
[1] = xn = mol fraction of the nth substance listed; settings: for surface tension liquid-gas: Pendant drop shape; for mass density: 101 kPa, Liquid
[2] = for surface tension liquid-gas: Pendant drop shape; for mass density: 101 kPa, Liquid

Cc1cccc(C)c1 [1,3-dimethylbenzene] + CCCOC(C)=O
[1]
Settings | mass density [kg/m3] | surface tension liquid-gas [mN/m]
298.15 K, x2 = 0 | 859.8 | 28.47
298.15 K, x2 = 0.0997 | 861.98 | 27.86
298.15 K, x2 = 0.1999 | 864.17 | 27.26
298.15 K, x2 = 0.2986 | 866.33 | 26.7
298.15 K, x2 = 0.4002 | 868.57 | 26.16
298.15 K, x2 = 0.4986 | 870.76 | 25.71
298.15 K, x2 = 0.6004 | 873.06 | 25.3
298.15 K, x2 = 0.6984 | 875.31 | 24.94
298.15 K, x2 = 0.8004 | 877.7 | 24.59
298.15 K, x2 = 0.9007 | 880.11 | 24.25
303.15 K, x2 = 0 | 855.51 | 27.93
303.15 K, x2 = 0.0999 | 857.57 | 27.35
303.15 K, x2 = 0.1989 | 859.62 | 26.79
303.15 K, x2 = 0.299 | 861.69 | 26.25
303.15 K, x2 = 0.4003 | 863.8 | 25.73
303.15 K, x2 = 0.5 | 865.9 | 25.27
303.15 K, x2 = 0.5994 | 868.02 | 24.88
303.15 K, x2 = 0.6998 | 870.19 | 24.51
303.15 K, x2 = 0.8006 | 872.42 | 24.15
303.15 K, x2 = 0.8992 | 874.66 | 23.81
308.15 K, x2 = 0 | 851.19 | 27.37
308.15 K, x2 = 0.0998 | 853.12 | 26.8
308.15 K, x2 = 0.2 | 855.07 | 26.25
308.15 K, x2 = 0.2998 | 857.01 | 25.71
308.15 K, x2 = 0.3993 | 858.96 | 25.19
308.15 K, x2 = 0.5006 | 860.96 | 24.7
308.15 K, x2 = 0.6004 | 862.95 | 24.27
308.15 K, x2 = 0.6999 | 864.97 | 23.89
308.15 K, x2 = 0.7988 | 867.02 | 23.52
308.15 K, x2 = 0.9013 | 869.2 | 23.15

Cc1ccccc1C [1,2-dimethylbenzene] + CCCOC(C)=O
[1], x2 = 0
Settings | mass density [kg/m3] | surface tension liquid-gas [mN/m]
298.15 K | 875.05 | 29.89
303.15 K | 870.83 | 29.24
308.15 K | 866.62 | 28.57

CCCOC(C)=O [propyl ethanoate]
[2]
Settings | mass density [kg/m3] | surface tension liquid-gas [mN/m]
298.15 K | 882.54 | 23.91
303.15 K | 876.99 | 23.46
308.15 K | 871.35 | 22.79

Cc1ccc(C)cc1 [1,4-dimethylbenzene]
[2]
Settings | mass density [kg/m3] | surface tension liquid-gas [mN/m]
298.15 K | 856.92 | 28.08
303.15 K | 852.58 | 27.47
308.15 K | 848.26 | 27.13

CCCOC(C)=O [propyl ethanoate] + CCc1ccccc1
[1]
Settings | mass density [kg/m3] | surface tension liquid-gas [mN/m]
298.15 K, x1 = 0.1005 | 864.23 | 28.15
298.15 K, x1 = 0.1994 | 866.18 | 27.51
298.15 K, x1 = 0.3002 | 868.16 | 26.89
298.15 K, x1 = 0.4005 | 870.14 | 26.35
298.15 K, x1 = 0.5 | 872.12 | 25.91
298.15 K, x1 = 0.6002 | 874.14 | 25.5
298.15 K, x1 = 0.6997 | 876.17 | 25.1
298.15 K, x1 = 0.7998 | 878.24 | 24.7
298.15 K, x1 = 0.9007 | 880.38 | 24.3
298.15 K, x1 = 1 | 882.54 | 23.91
303.15 K, x1 = 0.1001 | 859.75 | 27.7
303.15 K, x1 = 0.1995 | 861.59 | 27.1
303.15 K, x1 = 0.2995 | 863.45 | 26.49
303.15 K, x1 = 0.4 | 865.32 | 25.95
303.15 K, x1 = 0.5004 | 867.2 | 25.49
303.15 K, x1 = 0.5995 | 869.08 | 25.07
303.15 K, x1 = 0.6999 | 871 | 24.65
303.15 K, x1 = 0.8005 | 872.96 | 24.24
303.15 K, x1 = 0.9007 | 874.96 | 23.85
303.15 K, x1 = 1 | 876.99 | 23.46
308.15 K, x1 = 0.1 | 855.19 | 27.24
308.15 K, x1 = 0.2 | 856.93 | 26.62
308.15 K, x1 = 0.2999 | 858.67 | 26.01
308.15 K, x1 = 0.3997 | 860.41 | 25.46
308.15 K, x1 = 0.5003 | 862.18 | 24.97
308.15 K, x1 = 0.5999 | 863.95 | 24.52
308.15 K, x1 = 0.7001 | 865.74 | 24.08
308.15 K, x1 = 0.8007 | 867.58 | 23.65
308.15 K, x1 = 0.9003 | 869.44 | 23.22
308.15 K, x1 = 1 | 871.35 | 22.79

CCc1ccccc1 [ethylbenzene]
[2]
Settings | mass density [kg/m3] | surface tension liquid-gas [mN/m]
298.15 K | 862.25 | 28.79
303.15 K | 857.88 | 28.29
308.15 K | 853.43 | 27.85

CCCOC(C)=O [propyl ethanoate] + Cc1cccc(C)c1
[1], x1 = 1
Settings | mass density [kg/m3] | surface tension liquid-gas [mN/m]
298.15 K | 882.54 | 23.91
303.15 K | 876.99 | 23.46
308.15 K | 871.35 | 22.79

Cc1ccccc1C [1,2-dimethylbenzene]
[2]
Settings | mass density [kg/m3] | surface tension liquid-gas [mN/m]
298.15 K | 875.05 | 29.89
303.15 K | 870.83 | 29.24
308.15 K | 866.62 | 28.57
